Experimental findings from ChEMBL document CHEMBL1123071 (J Med Chem, 1985) are described below.

The structures appear in SMILES notation.

System in the first data set: not given
Experiment: not given
Particulars: octanol/water.
By logP is commonly meant the decadic logarithm of the partition coefficient of the neutral form, usually between octanol and water. `NC(N)=S` [THIOUREA] displayed a logP of -1.06.

The target of another data set is T1, Dihydrofolate reductase type 1 (Escherichia coli) (UniProt P00382).
T1 sequence (whole entry): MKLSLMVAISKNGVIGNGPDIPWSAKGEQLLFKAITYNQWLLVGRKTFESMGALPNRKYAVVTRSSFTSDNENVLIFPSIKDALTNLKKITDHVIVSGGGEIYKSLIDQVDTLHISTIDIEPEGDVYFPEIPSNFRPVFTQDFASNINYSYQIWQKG
Kind of data set: Inhibition of dihydrofolate reductase (DHFR) from Escherichia coli.
Conditions: not given
In turn, `CC1(C)N=C(N)N=C(N)N1c1cccc(C(=O)O)c1` registered a Log 1/C of 3.89.
Consider `CC1(C)N=C(N)N=C(N)N1c1ccccc1`, for which the Log 1/C worked out at 5.52.
On the same count and under the same terms, for `CC1(C)N=C(N)N=C(N)N1c1ccc(C#N)cc1` the value was 4.04; for `CC1(C)N=C(N)N=C(N)N1Cc1ccccc1`, 4.47; for `CCOC(=O)c1ccc(N2C(N)=NC(N)=NC2(C)C)cc1`, 4.42.
Turning to `COc1cccc(N2C(N)=NC(N)=NC2(C)C)c1`, the Log 1/C worked out at 5.41.
For the molecule `Nc1ncc(Cc2ccc([N+](=O)[O-])cc2)c(N)n1`, the Log 1/C was 6.2.
Same read-out and setting: for `CC1(C)N=C(N)N=C(N)N1c1ccc(-c2ccccc2)cc1` the value was 5.24.
Same read-out and setting: for `COc1ccc(Cc2cnc(N)nc2N)cc1C(F)(F)F` the value was 7.69; for `CC1(C)N=C(N)N=C(N)N1c1cccc([N+](=O)[O-])c1`, 5.51; for `Nc1ncc(Cc2ccc(OC(F)(F)F)cc2)c(N)n1`, 6.57.
Same read-out and setting: for `CS(=O)(=O)Oc1cccc(Cc2cnc(N)nc2N)c1` the value was 6.92.
In turn, `CC1(C)N=C(N)N=C(N)N1c1ccc(Cl)c(Cl)c1` gave a Log 1/C of 6.8.
Same read-out and setting: for `CC1(C)N=C(N)N=C(N)N1c1cccc(C(F)(F)F)c1` the value was 5.64; for `CC(=O)Nc1ccc(Cc2cnc(N)nc2N)cc1[N+](=O)[O-]`, 6.97; for `CC1(C)N=C(N)N=C(N)N1c1cccc(Cc2ccccc2)c1`, 6.55.
On the same count and under the same terms, in the case of `CC1(C)N=C(N)N=C(N)N1c1ccc(Cl)cc1` it was 6.4.
Same read-out and setting: for `CCCN1C(N)=NC(N)=NC1(C)C` the value was 5.33.
`CN1C(N)=NC(N)=NC1(C)C` had a Log 1/C of 4.32.
Same read-out and setting: in the case of `CC1(C)N=C(N)N=C(N)N1c1cccc(Cl)c1` it was 6.22; in that of `CC1(C)N=C(N)N=C(N)N1CCCc1ccccc1`, 7.2.
Still for that read-out and setting: for `CC1(C)N=C(N)N=C(N)N1CCc1ccccc1` the value was 5.42; for `CC1(C)N=C(N)N=C(N)N1c1ccc(C(=O)O)cc1`, 2.72.

System in another data set: not listed separately
Kind of data set: physchem. Particulars: octanol/water.
The molecule `CN(C)N=O` [N-NITROSODIMETHYLAMINE] displayed a logP of -0.57.
`C=C=C` registered a logP of 1.45.
Still for that read-out and setting: in the case of `C=CC#N` [ACRYLONITRILE] it was -0.92; in that of `CO` [METHYL ALCOHOL], -0.71.
The same measure, in the same setting: in the case of `CCNC(N)=S` it was -0.66; in that of `O=NN(CCF)C(=O)NCCCl`, 0.95; in that of `NC(N)=O` [UREA], -1.09.
On the same count and under the same terms, for `Oc1cccc(I)c1` the value was 3; for `COc1ccccc1` [ANISOLE], 2.08; for `CCOCCO` [2-ETHOXYETHANOL], -0.54.
The molecule `O=[N+]([O-])CCO` came in with a logP of -0.42.
On the same count and under the same terms, in the case of `O=C(O)CBr` [BROMOACETIC ACID] it was 0.41.
Same read-out and setting: for `NC(=O)C(Cl)(Cl)Cl` the value was 1.04; for `O=Nc1ccc(O)c(C(=O)O)c1`, 2.34; for `ClC=C(Cl)Cl` [TRICHLOROETHYLENE], 2.29.
The same measure, in the same setting: for `CCN` [ETHYLAMINE] the value was -0.13.
`C=C` gave a logP of 1.13.
Same read-out and setting: in the case of `CBr` [BROMOMETHANE] it was 1.19.
The molecule `COC(C)=O` [ACETIC ACID METHYL ESTER] registered a logP of 0.18.
On to `ClC(Cl)=C(Cl)Cl` [TETRACHLOROETHYLENE], for which the logP came to 2.6.
On the same count and under the same terms, for `CSc1ccccc1` the value was 2.74; for `OCC(Cl)Cl`, 0.37.
Same read-out and setting: in the case of `CI` [IODOMETHANE] it was 1.51; in that of `Brc1ccccn1`, 1.38.
Still for that read-out and setting: in the case of `O=c1[nH]cc(I)c(=O)[nH]1` it was 0.04; in that of `CS(=O)(=O)c1ccccc1` [METHYLPHENYLSULFONE], 0.48; in that of `CC(C)N` [ISOPROPYLAMINE], 0.26.
`CC(C)N(N=O)C(C)C` displayed a logP of 1.63.
Still for that read-out and setting: for `C#CC` [PROPYNE] the value was 0.94; for `CCCCCF`, 2.33; for `CC[N+](=O)[O-]` [NITROETHANE], 0.18.
The same measure, in the same setting: in the case of `C=CC` [PROPENE] it was 1.77.
On the same count and under the same terms, in the case of `C=C(F)F` it was 1.24; in that of `CCSCC` [DIETHYL SULFIDE], 1.95.
Molecule `C1=CCOC1` came in with a logP of 0.46.
On to `C#C` [ETHYNE], for which the logP turned out to be 0.37.
Still for that read-out and setting: in the case of `CCOC(C)=O` [ETHYL ACETATE] it was 0.7; in that of `CC#N` [ACETONITRILE], -0.34; in that of `Brc1ccncc1`, 1.54.
Regarding `C=COCC`, the logP came to 1.04.
The same measure, in the same setting: for `FCF` the value was 0.2.
The same measure, in the same setting: in the case of `O=C(O)CS` [THIOGLYCOLIC ACID] it was 0.09; in that of `CF` [FLUOROMETHANE], 0.51; in that of `C=CCC`, 2.4.
The same measure, in the same setting: for `CN(N=O)C(N)=O` [N-METHYL-N-NITROSUREA] the value was -0.16; for `N=C=N` [CARBIMIDE], -0.5.
Consider `O=[N+]([O-])c1cccc(I)c1`, for which the logP worked out at 2.94.
On the same count and under the same terms, for `O=Nc1ccccc1` [NITROSOBENZENE] the value was 2.01.
On the same count and under the same terms, in the case of `OCC(F)(F)F` [TRIFLUOROETHANOL] it was 0.41; in that of `Clc1ccccc1` [CHLOROBENZENE], 2.46.
Same read-out and setting: for `CC(Cl)(Cl)Cl` [TRICHLOROETHANE] the value was 2.49; for `FC(F)(F)C(F)(F)F`, 2.
The molecule `NC(=O)CBr` had a lipophilicity (logP) of -0.52.
On the same count and under the same terms, for `FC(Cl)Cl` the value was 1.55; for `FC(F)(Cl)C(F)(F)Cl` [DICHLOROTETRAFLUOROETHANE], 2.82.
Consider `C[N+](C)(C)CCI`, for which the logP is -3.
Still for that read-out and setting: for `CN` [METHYLAMINE] the value was -0.57.
Same read-out and setting: for `Cc1cccc([N+](C)(C)C)c1` the value was -2.31; for `O=CO` [FORMIC ACID], -0.54.
For the molecule `COC` [METHOXYMETHANE], the logP came to 0.1.
Same read-out and setting: for `CCOCC` [ETHER] the value was 0.77; for `Nc1cccc(Cl)c1` [3-CHLOROANILINE], 1.88; for `C[S+]([O-])c1ccccc1` (configuration not stated) [METHYLPHENYLSULFOXIDE], 0.55.
`CC(O)CN` (configuration not stated): the logP was -0.96.
The same measure, in the same setting: for `FC(F)Cl` the value was 1.08; for `NC(=O)C(F)(F)F` [TRIFLUOROACETAMIDE], 0.12; for `CC#CC`, 1.46.
`OCC(Cl)(Cl)Cl` [TRICHLORETHANOL] yielded a logP of 1.42.
Same read-out and setting: for `ClCCl` [METHYLENE CHLORIDE] the value was 1.25; for `CNC(C)=O`, -1.05; for `Sc1ccccc1` [BENZENETHIOL], 2.52.
For `CC(F)F`, the logP was determined as 0.75.
Same read-out and setting: for `CCCl` [ETHYL CHLORIDE] the value was 1.43.
